# Columns and labels:
# CYP3A4 [1] = biological target: T1, CYP3A4 (Homo sapiens, UniProt P08684); test: ROS-based fluorescence assay (DCFH-DA oxidation) of inhibition of CYP3A4-mediated testosterone oxidation; settings: ROS-based IC50, recombinant CYP3A4 microsomes, testosterone substrate 40 μM
# Procedure: (§1) 1′-hydroxymidazolam and microsomes (SUPERSOMES™) prepared from baculovirus-infected insect cells containing recombinant heterologously expressed human CYP plus NADPH CYP reductase were purchased from GenTest Corp. (Woburn, Mass., United States of America). 6β-hydroxytestosterone and 11α-hydroxyprogesterone were obtained from Steraloids Inc. (Wilton, N.H., United States of America).
# Stock solutions of DCFH-DA (2.5 mM) and NADPH (20 mM) were prepared prior to each experiment in methanol and buffer, respectively. Substrates and inhibitors were prepared in 100% methanol and stored at −20° C. […] Unless otherwise indicated, testosterone were added to the reactions at a final concentration of 40 μM. An equal volume of methanol was added to samples containing no substrate and served as controls. Reactions were performed at 37° C. in 96-well black bottom plates. Inhibitors were added at varying concentrations from stock solutions prepared in either water or methanol. Final methanol concentrations were kept constant among samples (1%, v/v) to eliminate variability in the rate of fluorescence production due to the effect of methanol on CYP activity. […] The concentration of DCF in the reactions was determined using a standard curve constructed with authentic DCF. […]
# CYP3A4 [2] = biological target: T1, CYP3A4; test: Conventional LC-UV assay quantifying 6β-hydroxytestosterone formation by CYP3A4; settings: LC-based IC50, recombinant CYP3A4 microsomes, testosterone substrate, LC-UV quantification of 6β-hydroxytestosterone
# Procedure: as §1
# Inhibition of CYP3A4-mediated oxidation of testosterone was measured by 6β-hydroxytestosterone formation. The kinetics of 6β-hydroxytestosterone formation by CYP3A4 was determined and compared to rate of fluorescence production. Reactions consisted of varying concentrations of testosterone, 50 pmol CYP3A4 per ml, and buffer to a final volume of one milliliter. Reactions were performed at 37° C. and were started upon addition of 1 mM NADPH. […] Samples were placed immediately on ice and the precipitated protein was removed by centrifugation for four minutes at 13,000 rpm. The supernatant was transferred to HPLC vials for analysis.
# HPLC analysis was performed using an Agilent 1100 Series HPLC system (Agilent Technologies, Palo Alto, Calif., United States of America) equipped with an online UV-detector. […]
# T1 sequence (P08684 2-503 limits assumed): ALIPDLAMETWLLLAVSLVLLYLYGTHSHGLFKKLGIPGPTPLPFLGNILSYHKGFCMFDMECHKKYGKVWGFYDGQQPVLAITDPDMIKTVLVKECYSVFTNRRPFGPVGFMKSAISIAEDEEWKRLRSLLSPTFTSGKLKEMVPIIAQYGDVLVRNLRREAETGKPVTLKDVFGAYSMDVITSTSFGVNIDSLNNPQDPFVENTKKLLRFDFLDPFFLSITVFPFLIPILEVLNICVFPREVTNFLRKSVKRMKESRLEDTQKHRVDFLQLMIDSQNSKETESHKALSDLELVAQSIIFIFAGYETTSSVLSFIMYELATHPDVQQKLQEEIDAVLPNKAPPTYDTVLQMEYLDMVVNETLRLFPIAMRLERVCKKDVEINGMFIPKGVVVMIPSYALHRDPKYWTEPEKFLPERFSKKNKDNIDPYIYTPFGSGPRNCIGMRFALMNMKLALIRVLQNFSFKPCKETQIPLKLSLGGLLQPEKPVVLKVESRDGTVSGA
SMILES,IC50 (CYP3A4 [1]) [µM],IC50 (CYP3A4 [2]) [µM]
CC[C@H]1OC(=O)[C@H](C)[C@@H](O[C@H]2C[C@@](C)(OC)[C@@H](O)[C@H](C)O2)[C@H](C)[C@@H](O[C@@H]2O[C@H](C)C[C@H](N(C)C)[C@H]2O)[C@](C)(O)C[C@@H](C)C(=O)[C@H](C)[C@@H](O)[C@]1(C)O [Erythromycin],27.6,1.7
CC(=O)[C@H]1CC[C@H]2[C@@H]3CCC4=CC(=O)CC[C@]4(C)[C@H]3CC[C@]12C [Progesterone],27.6,22.6
